Columns and labels:
[1] = tested on: CTG repeat in the 3′ UTR of human DMPK gene; assay: Dual-cut screening: CTG repeat excision efficiency by loss-of-signal ddPCR; type: cell-based; conditions: sgRNA pair, primary DM1 patient myoblasts; for Excision efficiency (by ddPCR): 3 μM DNA-PKi Compound 6 for 48 hours; for Excision efficiency by ddPCR (Vehicle): vehicle (DMSO)
Method: (§1) RNPs were assembled with recombinant SluCas9 protein and chemically modified sgRNAs at a ratio of 1:3 (protein:sgRNA). For SINGLE-cut screening, RNP complexes were assembled with 30 pmol of SluCas9 and 90 pmol of sgRNA in P5 Primary Cell Nucleofector Solution (Lonza). After incubation at room temperature for 20 minutes, 10 μL of RNP complex were mixed with two hundred thousand of primary myoblasts resuspended in 10 μL of P5 Nucleofector Solution. For DOUBLE-cut screening, RNP complexes were first assembled for individual sgRNAs with 20 pmol of SluCas9 protein and 60 pmol of sgRNAs in 5 μL of P5 Nucleofector Solution. After incubation at room temperature for 20 minutes, the two RNP complexes (one for upstream sgRNA and one for downstream sgRNA) were mixed at 1:1 ratio and then further mixed with two hundred thousand of primary myoblasts resuspended in 10 μL of P5 Nucleofector Solution.
(§2) The Nucleofector 96-well Shuttle System (Lonza) was used to deliver the SluCa9/sgRNA RNPs into primary DM1 patient myoblasts using the nucleofection program CM138. Following nucleofection, myoblasts from each well of nucleofection shuttle were split into six wells of the 96-well cell culture plate (Greiner, 655090) coated with matrigel. The first three wells were treated with DMSO for 48 hrs before changing to fresh myoblast growth medium, and the other three wells were treated with 3 μM of DNA-PKi Compound 6 for 48 hrs before changing to fresh myoblast growth medium. 72 hrs post nucleofection, two wells of DMSO-treated myoblasts and two wells of DNA-PKi-treated myoblasts from each nucleofection were harvested for genomic DNA extraction using the Kingfisher Flex purification system (Thermal Fisher), whereas one well of DMSO-treated myoblasts and one well of DNA-PKi-treated myoblasts were stained for RNA foci by FISH staining.
The primers and probes of ddPCR are designed using the online primer design software Primer3Plus (http://www.bioinformatics.nl/cgi-bin/primer3plus/primer3plus.cgi). In some embodiments, two target primers/probe sets were used to detect CTG repeat excision, and a reference primers/probe set were used to amplify a region located in Exon 1 of human DMPK gene and to serve as a reference control for the target sets. The 24 μL of ddPCR reaction consists of 12 μL of Supermix for Probes (no dUTP) (Bio-Rad Laboratories), 1 μL of Reference primers mix (21.6 μM), 1 μL of Reference probe (6 μM), 1 μL of Target primers mix (21.6 μM), 1 μL of Target probe (6 μM), and 8 μL of sample genomic DNA. Droplets were generated using probe oil with the QX200 Droplet Generator (Bio-Rad Laboratories). Droplets were transferred to a 96-well PCR plate, sealed and cycled in a C1000 deep well Thermocycler (Bio-Rad Laboratories) under the following cycling protocol: 1 cycle at 95° C. for 10 min; 40 cycles of 94° C. for 30 see, and 58° C. for 1 min; 1 cycle at 98° C. for 10 min (for enzyme inactivation). The cycled plate was then transferred and read in the FAM and HEX channels using the Bio-Rad QX200 Droplet Reader (Bio-Rad Laboratories). ddPCR analysis is performed with the Bio-Rad QuantaSoft Pro Software.
(§3) To assess the efficiency of SluCas9 sgRNA pairs for inducing CTG repeat excision, Dual-cut screening was performed in which individual SluCas9 sgRNAs and recombinant SluCas9 protein were assembled into ribonucleoprotein (RNP) and delivered into primary DM1 patient myoblasts. Nucleofected myoblasts were treated with either DMSO (vehicle) or 3 μM of DNA-dependent Protein Kinase Inhibitor (DNA-PKi) Compound 6 for 48 hours. 72 hours post-nucleofection, myoblasts were subjected to either genomic DNA isolation or RNA foci staining by fluorescence in situ hybridization (FISH).
CRISPR repeat excision efficiency was assessed for each of the 88 pairs (FIG. 8A-B and Table 5). CTG repeat excision efficiency percentages are shown for vehicle (DMSO; white bars) and with DNA-PKi (black bars) (FIG. 8B and Table 5).

[2] = tested on: CUG foci in primary DM1 patient myoblasts; assay: Dual-cut screening: FISH staining of CUG RNA foci; type: cell-based, human; conditions: sgRNA pair, primary DM1 patient myoblasts; for % of CUG foci free nuclei (DNA-PKi): 3 μM DNA-PKi Compound 6 for 48 hours; for % of CUG foci free nuclei (Vehicle): vehicle (DMSO)
Method: as §1, §2
Primary myoblasts were fixed for 15 min with 4% paraformaldehyde (PFA) and washed five times with 1×PBS for 10 min each at room temperature. Before staining, cells were permeabilized with 0.5% triton X-100 in 1×PBS for 5 min at room temperature, and then washed with 30% formamide and 2× saline-sodium citrate (SSC) mixture for 10 min at room temperature. Cells were then stained with 1 ng/μL of Cy3-PNA(CAG)5 probe (PNA Bio, F5001) diluted in 30% formamide, 2×SSC, 2 μg/mL BSA, 66 μg/mL yeast tRNA, and 2 mM vanadyl complex for 15 min at 80° C. Following probe staining, cells were then washed in 30% formamide and 2×SSC mixture for 30 min at 42° C., then washed in 30% formamide and 2×SSC mixture for 30 min at 37° C., and then washed in 1×SSC solution for 10 min at room temperature, and finally washed in 1×PBS for 10 min at room temperature. Cells were next stained with anti-MBNL1 antibody (Santa Cruz, 3A4) diluted in 1% bovine serum albumin (BSA) for overnight at 4° C., and washed twice with 1×PBS for 10 min each at room temperature. Cells were then incubated with the secondary antibody goat anti-rabbit Alexa 647 (Thermo Fisher, A32728) diluted in 1% BSA for 1 hr at room temperature, and washed twice with 1×PBS for 10 min each at room temperature. Next, cells were stained with Hoechst solution (Thermo Fisher, H3569) at 0.1 mg/ml for 5 min, and washed once with 1×PBS for 5 min. PBS was aspirated and fresh 100 μl of fresh PBS is added to each well. High-throughput acquisition of images was completed with the ImageXpress Micro Confocal High-Content Imaging System (Molecular Devices). RNA foci quantifications were accomplished with a customized analysis module of the MetaXpress program (Molecular Devices).
as §3, with “72 hours post-nucleofection, myoblasts were subjected to either genomic DNA isolation or RNA foci staining by fluorescence in situ hybridization (FISH).” left out

[3] = tested on: 3′ UTR of the human DMPK gene; assay: Single-cut screening: indel editing efficiency by Sanger sequencing and ICE analysis in primary DM1 patient myoblasts; type: cell-based; conditions: single SluCas9 sgRNA RNP in primary DM1 patient myoblasts; Sanger sequencing and ICE analysis; vehicle-treated samples
Outline: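 Indels were estimated by ICE from Sanger chromatograms of PCR amplicons covering the DMPK 3′ UTR wild-type allele, using only vehicle-treated samples; sgRNAs with R2<0.9 are flagged. Samples came from primary DM1 patient myoblasts (2 × 10^5) harvested 72 h after nucleofection with 30 pmol SluCas9 and 90 pmol single sgRNA RNP.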

[4] = tested on: CUG foci in primary DM1 patient myoblasts; assay: Single-cut screening: FISH staining of CUG RNA foci; type: cell-based, human; conditions: single sgRNA, primary DM1 patient myoblasts; for % of CUG foci free nuclei (DNA-PKi): DNA-PKi treated
Outline: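 CD56-purified primary DM1 patient myoblasts nucleofected with SluCas9:sgRNA RNP (30:90 pmol, single-cut), then DMSO or 3 μM DNA-PK inhibitor for 48 h. At 72 h post-nucleofection, cells fixed and stained for CUG foci with Cy3-PNA(CAG)5 probe (1 ng/μL, 80 °C), co-stained for MBNL1 and Hoechst, imaged by high-content confocal microscopy.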

[5] = tested on: CAG foci in primary DM1 patient myoblasts; assay: Single-cut screening: CAG foci staining; type: cell-based, human; conditions: single sgRNA; for % of CAG foci positive nuclei (DNA-PKi): DNA-PKi treated
Outline: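 Primary DM1 patient myoblasts were PFA-fixed and hybridized with […] (1 ng/μL, 15 min at 80° C) in 30% formamide/2×SSC, followed by anti-MBNL1 immunostaining and Hoechst counterstain. CAG RNA foci were quantified by high-content confocal imaging after single-cut SuCas9 sgRNA editing.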

Substance | Excision efficiency (by ddPCR) [1] | Excision efficiency by ddPCR (Vehicle) [1] | % of CUG foci free nuclei (DNA-PKi) [2] [%] | % of CUG foci free nuclei (Vehicle) [2] [%] | Indel efficiency [3] [%] | % of CUG foci free nuclei (DNA-PKi) [4] [%] | % of CUG foci free nuclei (Vehicle) [4] [%] | % of CAG foci positive nuclei (DNA-PKi) [5] [%] | % of CAG foci positive nuclei (Vehicle) [5] [%]
SluU06 + SluD06 (guide 1 TGTCTTCGACTCCGGGGCCCCG; guide 2 CCAGGCTGAGGCCCTGACGTGG; guide RNA; listed as DNA, chemistry not fully specified) | 57.64 | 42.65 | 87.02 | 62.81 |  |  |  |  | 
SluU06 + SluD14 (guide 1 TGTCTTCGACTCCGGGGCCCCG; guide 2 ATGGGCAAACTGCAGGCCTGGG; guide RNA; listed as DNA, chemistry not fully specified) | 65.02 | 48.08 | 83.37 | 66.72 |  |  |  |  | 
SluU06 + SluD18 (guide 1 TGTCTTCGACTCCGGGGCCCCG; guide 2 TGGAGGATGGAACACGGACGGC; guide RNA; listed as DNA, chemistry not fully specified) | 64.53 | 45.61 | 87.79 | 69.25 |  |  |  |  | 
SluU06 + SluD32 (guide 1 TGTCTTCGACTCCGGGGCCCCG; guide 2 CTTGTGCATGACGCCCTGCTCT; guide RNA; listed as DNA, chemistry not fully specified) | 73.51 | 50.63 | 89.84 | 67.77 |  |  |  |  | 
SluU06 + SluD34 (guide 1 TGTCTTCGACTCCGGGGCCCCG; guide 2 CGCGCCAGACGCTCCCCAGAGC; guide RNA; listed as DNA, chemistry not fully specified) | 67.57 | 51.37 | 90.66 | 78.56 |  |  |  |  | 
gccccgttcgccggccgcggac (guide GCCCCGTTCGCCGGCCGCGGAC; listed as DNA, chemistry not fully specified) [SluU58] |  |  |  |  | 36 | 49.37 | 16.57 | 1.51 | 1.35
gcccctccctccccggccGCTA (guide RNA; as printed in the source, key not given here) [SluU48] |  |  |  |  | 11 | 24.81 | 20.76 | 1.56 | 1.1
gccgggtccgcggccggcgaac (GCCGGGTCCGCGGCCGGCGAAC; guide RNA; chemistry not fully specified) [SluU57] |  |  |  |  | 17 | 52.65 | 18.03 | 1.77 | 1.54
gcggccggcgaacggggcTCGA (guide RNA; as printed in the source, key not given here) [SluU60] |  |  |  |  | 40 | 49.06 | 22.98 | 2.17 | 1.23
ggcccctccctccccggccGCT (guide RNA; as printed in the source, key not given here) [SluU50] |  |  |  |  | 22 | 48.15 | 11.21 | 1.59 | 0.75
ggccgggtccgcggccggcgaa (GGCCGGGTCCGCGGCCGGCGAA; guide RNA; chemistry not fully specified) [SluU56] |  |  |  |  | 27 | 42.84 | 16.76 | 1.83 | 0.94
gggccgggtccgcggccggcga (GGGCCGGGTCCGCGGCCGGCGA; guide RNA; chemistry not fully specified) [SluU55] |  |  |  |  | 67 | 57.91 | 27.94 | 1.34 | 0.99
tccctccccggccGCTAGGGGG (guide RNA; as printed in the source, key not given here) [SluU43] |  |  |  |  | 5 | 28.61 | 7.64 | 1.76 | 1.02
